# Assay results published in patent publication US12421535B2, “Biochemically produced sandalwood oil” (FIRMENICH SA, priority 2019, dated 2025).
# Key:
# NHDF = experiment: Anti-inflammatory test, cytokine release (ELISA), LPS-challenged fibroblasts; format: cell-based, human; details: LPS 0.5 ug/ml
# Description: (§1) Monolayer cultures of Normal Human foreskin-derived Dermal Fibroblasts (NHDFs; ATCC, CRL-2522) were used for the anti-inflammatory study. The cells were grown in Dulbecco's Modified Eagle Medium (DMEM, Gibco/Life Technologies, 31885) supplemented with 10% of Foetal Bovine Serum (FBS, Gibco/Life Technologies, 10270) and antibiotics (penicillin/streptomycin, Gibco/Life Technologies, 15140). Monolayer cultures of Normal Human Epidermal Keratinocytes (NHEKs; Lonza, 00192906) were used for the anti-inflammatory study. The cells were grown in Epilife medium containing gentamycin and HKGS (Human Keratinocyte Growth Supplement).
# (§2) The cells were maintained in a humidified incubator at 37° C. with a 5% CO2 atmosphere for the indicated treatment periods before performing metabolic, cytokine and gene expression assays.
# (§3) Both NHEK and NHDF cell types were cultured in 24-well plates for 24 h in complete medium before being exposed to the test and reference items. Test compositions were applied on the cells 2 h before the 24 h-challenge with pro-inflammatory agents (see table below). Each sample was compared to solvent control conditions. At the end of treatment, all the supernatants were collected and stored at −20° C. until further use in specific ELISA assays for the quantification of the extracellular release of IL-8, IL-6, TNF-α, MCP-1 and CXCL5, based on a standard curve, according to the kits supplier's specifications.
# (§4) Sandalwood oil of the invention was tested at 20 μg/ml on both keratinocytes and fibroblasts, in a comparison with S. album essential oil. Keratinocytes and fibroblasts were cultivated under conditions that stimulate the onset of inflammation. After induction of an inflammation state and test compounds application, cell culture supernatants were collected for further ELISA quantification. The ability of the ingredients in reducing the production of selected inflammation markers (MCP-1, CXCL5, IL-6, IL-8 and TNFalpha for NHEK only) was then measured by ELISA (Enzyme-Linked ImmunoSorbent Assay), a biochemical assay commonly used to quantify substances.
# NHEK = experiment: Anti-inflammatory test, cytokine release (ELISA), keratinocytes challenged with TNFα or PMA + A23187; format: cell-based, human; details: for IL-6 % Reduction (vs A23187/EtOH) / IL-6 % Stimulation (vs Untreated) / IL-8 % Reduction (vs PMA + A23187/EtOH) / IL-8 % Stimulation (vs Untreated) / TNFα % Reduction (vs PMA + A23187/EtOH) / TNFα % Stimulation (vs Untreated): PMA 10 ng/ml + A23187 2 uM; for CXCL-5 % Reduction (vs TNFa/EtOH) / CXCL-5 % Stimulation (vs Untreated) / MCP-1 % Reduction (vs TNFa/EtOH) / MCP-1 % Stimulation (vs Untreated): TNFa 50 ng/ml
# Description: as §1, §2, §3, §4
# [1] = tested on: Reconstructed Human Epidermis (RHE) mimicking sensitive skin; experiment: Protein expression (immuno-fluorescence) in RHE model mimicking sensitive skin; format: cell-based; details: Cytokine Mix + solvent, 10 uM, 48 h, untreated = 100
# Description: Human epidermis was reconstituted in vitro as described previously. […] Sandalwood oil of the invention was diluted at 20 μg/ml and 40 μg/ml in culture medium and added together with the cytokine cocktail during the same 48 h. The reference compound GW3965 (10 μM), a synthetic nonsteroidal liver X receptor (LXR) agonist was applied in the culture medium for 48 h as well. Protein levels of loricrin, involucrin and HAS3 were quantified at the end of the treatments by immuno-fluorescence. One section of each sample was dewaxed and rehydrated and the slides were incubated in the presence of the primary antibody specific for each of the 3 target proteins. Fluorescein-conjugated secondary antibodies were then used to detect the primary antibodies. DAPI Slowfade Diamond was used to detect the nuclei of the cells.
# ticks (Ixodes ricinus) = experiment: Tick repellency, adapted Warm Plate assay; format: in vivo
# Description: The repellent effect was determined on ticks (Ixodes ricinus) using an adaptation of the Warm Plate assay as defined in Kröber T, Bourquin M, Guerin P M. A standardised in vivo and in vitro test method for evaluating tick repellents. Pesticide Biochemistry and Physiology. 2013; 107(2):160-168, adapted in reducing the size of the arena and adding a controlled temperature and humid air flow to the set-up.
# NHEKs keratinocytes = experiment: Cytotoxicity MTS assay, NHEKs under PMA/calcium ionophore or TNF-α challenge; format: cell-based, human; details: SDS 0.008%, 26 h
# Description: (§5) A preliminary study was performed in order to determine the non-cytotoxic working concentrations for both the sandalwood oil of the invention and a reference sandalwood oil. The cell viability was evaluated using the standard MTS assay (3-(4,5-dimethythiazol-2-yl)-5-(3-carboxy-methoxyphenyl)-2-(4-sulfophenyl)-2H-tetrazolium) after treatment with the test ingredients (160-80-40-20-10 μg/ml, tested in triplicate).
# (§6) The test was performed both under basal conditions (i.e. without pro-inflammatory challenge) and pro-inflammatory stimuli for either 24 h-72 h or 26 h, respectively. Cells were seeded in 24-wells plates with complete medium, 24 h before treatment.
# (§7) Test ingredients were solubilized in solvent (DMSO or ethanol) and applied to the culture medium of cells 2 hours prior to the pro-inflammatory challenge (when required). SDS at 0.008% or 0.08% was used as cytotoxicity positive control to validate the experiment on NHEKs keratinocytes or NHDFs fibroblasts, respectively.
# (§8) In order to ensure experiments would be carried out with test composition concentrations that are non-cytotoxic, a cytotoxicity study was performed on NHEK and NHDF after 26 h of treatment (2 h alone and 24 h under inflammatory challenge with LPS for NHDFs fibroblasts and PMA/calcium ionophore or TNF-α for NHEKs). […]
# NHDFs fibroblasts = experiment: Cytotoxicity MTS assay, NHDFs under LPS challenge; format: cell-based, human; details: SDS 0.08%, 26 h
# Description: as §5, §6, §7, §8
# [2] = tested on: Reconstructed Human Epidermis (RHE); experiment: Permeability of Reconstructed Human Epidermis, biotin diffusion; format: cell-based
compound,measurement,setting,value
C[C@@H]1C[C@H]2[C@@H]3CCC4=CC(=O)C=C[C@]4(C)[C@@]3(F)[C@@H](O)C[C@]2(C)[C@@]1(O)C(=O)CO [Dexamethasone],CXCL-5 % Reduction (vs LPS/EtOH),NHDF; 10 uM,77%
same,CXCL-5 % Stimulation (vs Untreated),NHDF; 10 uM,6414%
same,IL-6 % Reduction (vs LPS/EtOH),NHDF; 10 uM,−70%
same,IL-6 % Stimulation (vs Untreated),NHDF; 10 uM,6606%
same,IL-8 % Reduction (vs LPS/EtOH),NHDF; 10 uM,−39%
same,IL-8 % Stimulation (vs Untreated),NHDF; 10 uM,7738%
same,MCP-1 % Reduction (vs LPS/EtOH),NHDF; 10 uM,−23%
same,MCP-1 % Stimulation (vs Untreated),NHDF; 10 uM,1067%
same,IL-6 % Reduction (vs A23187/EtOH),NHEK; 10 uM,−55%
same,IL-6 % Stimulation (vs Untreated),NHEK; 10 uM,275%
same,IL-8 % Reduction (vs PMA + A23187/EtOH),NHEK; 10 uM,−25%
same,IL-8 % Stimulation (vs Untreated),NHEK; 10 uM,14801%
same,TNFα % Reduction (vs PMA + A23187/EtOH),NHEK; 10 uM,−57%
same,TNFα % Stimulation (vs Untreated),NHEK; 10 uM,33869%
same,CXCL-5 % Reduction (vs TNFa/EtOH),NHEK; 10 uM,251%
same,CXCL-5 % Stimulation (vs Untreated),NHEK; 10 uM,1525%
same,MCP-1 % Reduction (vs TNFa/EtOH),NHEK; 10 uM,−53%
same,MCP-1 % Stimulation (vs Untreated),NHEK; 10 uM,1432%
O=C(O)Cc1cccc(OCCCN(Cc2cccc(C(F)(F)F)c2Cl)CC(c2ccccc2)c2ccccc2)c1 [GW3965],Hyaluronan synthase 3 (HAS 3) RQ,[1],106
same,Involucrin (IVL) RQ,[1],160
"CCC(C)OC(=O)N1CCCCC1CCO (centres unmarked) [Picaridin, sec-butyl 2-(2-hydroxyethyl)piperidine-1-carboxylate]",% of affected ticks,ticks (Ixodes ricinus); 0.016 mg/mL,8%
same,% of affected ticks,ticks (Ixodes ricinus); 0.4 mg/mL,50%
same,% of affected ticks,ticks (Ixodes ricinus); 10 mg/mL,92%
CC(C)Cc1ccc(C(C)C(=O)O)cc1 (centres unmarked) [Ibuprofen],CXCL-5 % Reduction (vs LPS/EtOH),NHDF; 100 uM,−19%
same,CXCL-5 % Stimulation (vs Untreated),NHDF; 100 uM,2929%
same,IL-6 % Reduction (vs LPS/EtOH),NHDF; 100 uM,−24%
same,IL-6 % Stimulation (vs Untreated),NHDF; 100 uM,16853%
same,IL-8 % Reduction (vs LPS/EtOH),NHDF; 100 uM,−14%
same,IL-8 % Stimulation (vs Untreated),NHDF; 100 uM,11037%
same,MCP-1 % Reduction (vs LPS/EtOH),NHDF; 100 uM,−4%
same,MCP-1 % Stimulation (vs Untreated),NHDF; 100 uM,1342%
same,CXCL-5 % Reduction (vs LPS/EtOH),NHDF; 500 uM,−39%
same,CXCL-5 % Stimulation (vs Untreated),NHDF; 500 uM,2216%
same,IL-6 % Reduction (vs LPS/EtOH),NHDF; 500 uM,−46%
same,IL-6 % Stimulation (vs Untreated),NHDF; 500 uM,11977%
same,IL-8 % Reduction (vs LPS/EtOH),NHDF; 500 uM,−36%
same,IL-8 % Stimulation (vs Untreated),NHDF; 500 uM,8242%
same,MCP-1 % Reduction (vs LPS/EtOH),NHDF; 500 uM,−32%
same,MCP-1 % Stimulation (vs Untreated),NHDF; 500 uM,950%
same,IL-6 % Reduction (vs A23187/EtOH),NHEK; 100 uM,−24%
same,IL-6 % Stimulation (vs Untreated),NHEK; 100 uM,462%
same,IL-8 % Reduction (vs PMA + A23187/EtOH),NHEK; 100 uM,−19%
same,IL-8 % Stimulation (vs Untreated),NHEK; 100 uM,16034%
same,TNFα % Reduction (vs PMA + A23187/EtOH),NHEK; 100 uM,−29%
same,TNFα % Stimulation (vs Untreated),NHEK; 100 uM,55645%
same,IL-6 % Reduction (vs A23187/EtOH),NHEK; 500 uM,−67%
same,IL-6 % Stimulation (vs Untreated),NHEK; 500 uM,202%
same,IL-8 % Reduction (vs PMA + A23187/EtOH),NHEK; 500 uM,−39%
same,IL-8 % Stimulation (vs Untreated),NHEK; 500 uM,12190%
same,TNFα % Reduction (vs PMA + A23187/EtOH),NHEK; 500 uM,−85%
same,TNFα % Stimulation (vs Untreated),NHEK; 500 uM,12099%
same,secretion levels of mediators of inflammation,"NHEK; PMA + A23187 or TNF-α, dexamethasone with the exception of CXCL-5",reduced significantly
same,CXCL-5 % Reduction (vs TNFa/EtOH),NHEK; 100 uM,−22%
same,CXCL-5 % Stimulation (vs Untreated),NHEK; 100 uM,337%
same,MCP-1 % Reduction (vs TNFa/EtOH),NHEK; 100 uM,−18%
same,MCP-1 % Stimulation (vs Untreated),NHEK; 100 uM,2471%
same,CXCL-5 % Reduction (vs TNFa/EtOH),NHEK; 500 uM,−47%
same,CXCL-5 % Stimulation (vs Untreated),NHEK; 500 uM,229%
same,MCP-1 % Reduction (vs TNFa/EtOH),NHEK; 500 uM,−63%
same,MCP-1 % Stimulation (vs Untreated),NHEK; 500 uM,1126%
"CCN(CC)C(=O)c1cccc(C)c1 [DEET, N,N-diethyl-meta-toluamide]",% of affected ticks,ticks (Ixodes ricinus); 0.016 mg/mL,11%
same,% of affected ticks,ticks (Ixodes ricinus); 0.4 mg/mL,20%
same,% of affected ticks,ticks (Ixodes ricinus); 10 mg/mL,81%
"CCCCN(CCC(=O)OCC)C(C)=O [IR3535, Ethyl butylacetylaminopropionate]",% of affected ticks,ticks (Ixodes ricinus); 0.016 mg/mL,0%
same,% of affected ticks,ticks (Ixodes ricinus); 0.4 mg/mL,33%
same,% of affected ticks,ticks (Ixodes ricinus); 10 mg/mL,56%
CCCCCCCCCCCCOS(=O)(=O)[O-].[Na+] [SDS],cell viability,NHEKs keratinocytes,strong decrease in cell viability
same,cell viability,NHDFs fibroblasts,strong decrease in cell viability
same,Surface stained*mean intensity/surface area,"[2]; 48 h, SDS 0.005%",103
same,biotin abundance (% relative to untreated),"[2]; 48 h, SDS 0.005%, versus untreated",614%
same,barrier function of epidermis,"[2]; SDS at 0.005%, compared to untreated control",reduced the barrier function
